The record followed here is patent US20240336596A1, “PARP7 INHIBITOR AND USE THEREOF” (NOVOSTAR PHARMACEUTICALS, LTD., priority 2022, published 2024).

Data set [1] deals with T1, recombinant human PARP7 protein (Homo sapiens, UniProt Q7Z3E1).
T1 construct: purchased Abcam ab271651
T1 sequence (Q7Z3E1 1-657): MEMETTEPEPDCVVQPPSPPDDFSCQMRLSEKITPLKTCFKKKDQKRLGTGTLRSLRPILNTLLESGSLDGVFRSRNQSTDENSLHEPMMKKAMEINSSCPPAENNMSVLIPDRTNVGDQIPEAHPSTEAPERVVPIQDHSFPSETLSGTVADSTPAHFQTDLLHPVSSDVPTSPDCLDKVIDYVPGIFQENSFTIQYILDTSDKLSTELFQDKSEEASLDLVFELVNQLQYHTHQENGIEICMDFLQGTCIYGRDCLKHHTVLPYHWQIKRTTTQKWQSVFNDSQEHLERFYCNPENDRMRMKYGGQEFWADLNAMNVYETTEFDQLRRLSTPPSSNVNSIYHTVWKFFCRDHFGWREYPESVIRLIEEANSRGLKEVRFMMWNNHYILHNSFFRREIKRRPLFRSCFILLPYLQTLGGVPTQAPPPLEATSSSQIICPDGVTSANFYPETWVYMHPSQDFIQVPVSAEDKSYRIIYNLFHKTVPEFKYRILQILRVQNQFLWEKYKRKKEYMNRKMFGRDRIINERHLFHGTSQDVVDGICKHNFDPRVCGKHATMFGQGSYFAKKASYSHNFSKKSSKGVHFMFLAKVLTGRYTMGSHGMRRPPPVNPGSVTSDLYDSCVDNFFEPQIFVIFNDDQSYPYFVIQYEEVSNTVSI
The data set is described as follows: Inhibition of PARP7 biological enzyme activity (histone-coated plate, Biotin-NAD+, chemiluminescence). Type of data set: biochemical. The note with it: recombinant human PARP7, Biotin-NAD+ substrate. The procedure, abridged:
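Recombinant human PARP7 was preincubated with compound (1000–0.05 nM final) on histone-coated plates for 15 min at 25 °C, then reacted with Biotin-NAD+ for 60 min at 25 °C. Ribosylation was detected by streptavidin-HRP chemiluminescence. IC50 was fitted from % inhibition relative to controls.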

The test system of data set [2] is NCI-H1373 cancer cells. The data set is described as follows: NCI-H1373 cancer cell growth inhibition (CellTiter-Glo, 144 hours). It counts as cell-based. Particulars: Homo sapiens, 144 hours culture. The procedure, abridged:
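Cells seeded at 3500/well and dosed after 24 h with a 10-point series from 10 μM down to 0.0005 μM (0.2% DMSO). After 144 h, viability was read by CellTiter-Glo luminescence. Growth inhibition was calculated relative to day-0 and solvent-control RLU, and IC50 was obtained from dose-response curve fits.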
In general terms: In ATP-based viability assays light output follows the ATP content of the culture.

Data set [3] in a line: Pharmacokinetic study in mice (IV and oral gavage). It counts as in vivo, CD-1 mice. The note with it: for AUClast (plasma exposure) relative to RBN-2397 / drug plasma half-life (T1/2) relative to RBN-2397 / drug clearance (CL(iv)) relative to RBN-2397 / maximum blood concentration (Cmax) relative to RBN-2397: mice; for drug plasma half-life (T1/2) relative to RBN-2397 / drug clearance (CL(iv)) relative to RBN-2397: intravenous administration; for drug clearance (CL(iv)) relative to RBN-2397: fraction of RBN-2397 value; for clearance / bioavailability / AUC(0-t) / half-life / Cmax: mouse, plasma, male CD-1 mice; for clearance: read-out: CL(iv) (converted); for bioavailability: oral bioavailability, PO 10 mg/kg vs IV 3 mg/kg. As for the experimental part:
Formulation of intravenous and oral gavage administration solutions: The compounds to be tested were dissolved in solutions formulated with 5% DMSO, 10% solutol HS15, and 85% saline.
Dosage (measured as the amount of compound in the administration solution (mg)/mouse body weight (kg)): 3 mg/kg intravenously (IV), 10 mg/kg oral gavage (PO).
A total of 18 CD-1 mice (Shanghai Jihui Experimental Animal Feeding Co., LTD.), male, weight 28-31 g, were fasted for 12 hours and randomly divided into 2 groups (Group A and Group B) with 9 mice in each group. Animals in Group A were given the compound solution by oral gavage at the dose of 10 mg/kg. Animals in Group B were given the compound solution by tail vein injection at the dose of 3 mg/kg, and blank blood was taken before administration. About 110 μL of venous blood was taken from animals in Group A at 0.25 h, 0.5 h, 1 h, 2 h, 4 h, 8 h, and 24 h after administration. About 110 μL of venous blood was taken from animals in Group B at 0.083 h, 0.25 h, 0.5 h, 1 h, 2 h, 4 h, 8 h, and 24 h after administration, and all were placed in test tubes with heparin, centrifuged, and plasma was collected and stored at −70° C. for testing.
AUClast represents the area under the drug time curve from the beginning of the administration time to the last point, that is, the area surrounded by the blood drug concentration curve to the time axis. CL(iv) represents the drug clearance of intravenous administration; T1/2 represents the plasma half-life of the drug, which refers to the time required for half of the drug to be eliminated from the body. Cmax represents the maximum concentration of the drug in the plasma after administration. F % indicates oral bioavailability of the drug.

Each structure is given as a SMILES string.

On to `C[C@@H](CONC(=O)CC1CCN(c2ncc(C(F)(F)F)cn2)CC1)Nc1cn[nH]c(=O)c1C(F)(F)F` [Example 17, (S)—N-(2-((6-oxo-5-(trifluoromethyl)-1,6-dihydropyridazin-4-yl)amino)propoxy)-2-(1-(5-(trifluoromethyl)pyrimidin-2-yl)piperidin-4-yl)acetamide], for which the IC50 in data set [1] was less than 10 nM. The compound further yielded an IC50 in data set [2] of less than 100 nM. Further, in data set [3] (3 mg/kg intravenous injection), the “AUClast (plasma exposure) relative to RBN-2397” value is “about 4.4 times”. Further, in data set [3], the “drug plasma half-life (T1/2) relative to RBN-2397” value worked out at 8 times, the “drug clearance (CL(iv)) relative to RBN-2397” value is “about ⅕” and the bioavailability came to 61.3%. For the same compound, in data set [3] (IV 3 mg/kg), the clearance was 15.5 mL/min/kg, the AUC(0-t) worked out at 3210 ng·h/mL and the half-life was 1.62 h. In data set [3] (PO 10 mg/kg), this compound yielded an AUC(0-t) of 6550 ng·h/mL and a Cmax of 5320 ng/mL. Further, in data set [3] (oral gavage 10 mg/kg), the “AUClast (plasma exposure) relative to RBN-2397” value was “about 11.3 times” and the “maximum blood concentration (Cmax) relative to RBN-2397” value is 7.8 times.

With `C[C@@H](CONC(=O)CC1=CCN(c2ncc(C(F)(F)F)cn2)CC1)Nc1cn[nH]c(=O)c1C(F)(F)F` [Example 25, (S)—N-(2-((6-oxo-5-(trifluoromethyl)-1,6-dihydropyridazin-4-yl)amino)propoxy)-2-(1-(5-(trifluoromethyl)pyrimidin-2-yl)-1,2,3,6-tetrahydropyridin-4-yl)acetamide], the IC50 in data set [2] was less than 100 nM. Also, the “AUClast (plasma exposure) relative to RBN-2397” value in data set [3] (3 mg/kg intravenous injection) is reported as “about 3.8 times”. Moreover, in data set [3], the “drug plasma half-life (T1/2) relative to RBN-2397” value turned out to be 27.8 times, the “drug clearance (CL(iv)) relative to RBN-2397” value was “about ⅕” and the bioavailability is 75.9%. Also, in data set [3] (IV 3 mg/kg), the clearance was 17.8 mL/min/kg, the AUC(0-t) was 2780 ng·h/mL and the half-life was 5.55 h. In data set [3] (PO 10 mg/kg), this compound displayed an AUC(0-t) of 7060 ng·h/mL and a maximum concentration (Cmax) of 7230 ng/mL. Further, in data set [3] (oral gavage 10 mg/kg), the “AUClast (plasma exposure) relative to RBN-2397” value is recorded as roughly 12.1 times and the “maximum blood concentration (Cmax) relative to RBN-2397” value is 10.6 times.

Regarding `C[C@@H](CONC(=O)CC1CCN(c2ncc3cc(F)ccc3n2)CC1)Nc1cn[nH]c(=O)c1C(F)(F)F` [Example 39, (S)-2-(1-(6-fluoroquinazolin-2-yl)piperidin-4-yl)-N-(2-((6-oxo-5-(trifluoromethyl)-1,6-dihydropyridazin-4-yl)amino)propoxy)acetamide], the IC50 was less than 10 nM in data set [1] and 100 to 1000 nM in data set [2].

As for `C[C@@H](CONC(=O)C(F)C1CCN(c2ncc(C(F)(F)F)cn2)CC1)Nc1cn[nH]c(=O)c1C(F)(F)F` (stereo partly shown) [Example 48], the IC50 in data set [1] was less than 10 nM; in data set [2] it was less than 100 nM.

For the compound `C[C@@H](CONC(=O)CC1CCN(c2ncc(C(F)(F)F)cn2)CC1F)Nc1cn[nH]c(=O)c1C(F)(F)F` (stereo partly drawn) [Example 53, 2-(3-fluoro-1-(5-(trifluoromethyl)pyrimidin-2-yl)piperidin-4-yl)-N—((S)-2-((6-oxo-5-(trifluoromethyl)-1,6-dihydropyridazin-4-yl)amino)propoxy)acetamide], the IC50 in data set [1] was less than 10 nM; in data set [2], 100 to 1000 nM.

Take `C[C@@H](COCCC(=O)N1CCN(c2ncc(C(F)(F)F)cn2)CC1)Nc1cn[nH]c(=O)c1C(F)(F)F` [RBN-2397, reference compound]: in data set [3] (IV 3 mg/kg), the clearance was 68.3 mL/min/kg, the AUC(0-t) came to 732 ng·h/mL and the half-life is 0.2 h. In addition, in data set [3], the bioavailability amounted to 23.9%. For the same compound, in data set [3] (PO 10 mg/kg), the AUC(0-t) was determined as 582 ng·h/mL and the Cmax was 682 ng/mL.

As a reminder, the IC50 is the point on the concentration scale where inhibition reaches its midpoint. One may read the bioavailability as dose-corrected exposure relative to a reference, in per cent. Low values mean little systemic uptake, high ones much systemic uptake. By AUC(0-t) is commonly meant the area under the concentration-time curve up to a stated or last time point. As usually defined, the half-life is the time needed for the level to fall by half in the phase considered. Low values mean rapid decline, high ones slow decline. In general, Cmax refers to the maximum level reached in the sampled fluid or tissue.
